Data set [1] concerns the target T1, Human COX I (Homo sapiens, UniProt P23219).
T1 construct: A 2.0 kb fragment containing the coding region of either human or murine COX-I or human or murine COX-II; made in house; host or cells: SF9 insect cells (recombinant baculovirus, transfer vector pVL1393)
The experiment in a line: COX I activity in vitro (PGE2 ELISA, recombinant enzyme). To be noted: arachidonic acid 10 μM, pre-incubation 10-20 minutes; read-out: Human COX I ID50. The data set is classed as biochemical. As for the experimental part: (§1) A 2.0 kb fragment containing the coding region of either human or murine COX-I or human or murine COX-II was cloned into a BamH1 site of the baculovirus transfer vector pVL1393 (Invitrogen) to generate the baculovirus transfer vectors for COX-I and COX-II in a manner similar to the method of D. R. O'Reilly et al (Baculovirus Expression Vectors: A Laboratory Manual (1992)). Recombinant baculoviruses were isolated by transfecting 4 μg of baculovirus transfer vector DNA into SF9 insect cells ([…]) along with 200 ng of linearized baculovirus plasmid DNA by the calcium phosphate method. See M. D. Summers and G. E. Smith, A Manual of Methods for Baculovirus Vectors and Insect Cell Culture Procedures, Texas Agric. Exp. Station Bull. 1555 (1987). Recombinant viruses were purified by three rounds of plaque purification and high titer (10E7-10E8 pfu/ml), stocks of virus were prepared. For large scale production, SF9 insect cells were infected in 10 liter fermentors (0.5×10^6/ml) with the recombinant baculovirus stock such that the multiplicity of infection was 0.1. After 72 hours the cells were centrifuged and the cell pellet homogenized in Tris/Sucrose (50 mM: 25%, pH 8.0) containing 1% 3-[(3-cholamidopropyl)dimethylammonio]-1-propanesulfonate (CHAPS). The homogenate was centrifuged at 10,000×G for 30 minutes, and the resultant supernatant was stored at −80° C. before being assayed for COX activity.
(§2) COX activity was assayed as PGE2 formed/μg protein/time using an ELISA to detect the prostaglandin released. CHAPS-solubilized insect cell membranes containing the appropriate COX enzyme were incubated in a potassium phosphate buffer (50 mM, pH 8.0) containing epinephrine, phenol, and heme with the addition of arachidonic acid (10 μM). Compounds were pre-incubated with the enzyme for 10-20 minutes prior to the addition of arachidonic acid. Any reaction between the arachidonic acid and the enzyme was stopped after ten minutes at 37° C./room temperature by transferring 40 μl of reaction mix into 160 μl ELISA buffer and 25 μM indomethacin. The PGE2 formed was measured by standard ELISA technology (Cayman Chemical).

Data set [2] deals with T2, Human COX II (Homo sapiens, UniProt P35354).
T2 construct: A 2.0 kb fragment containing the coding region of either human or murine COX-I or human or murine COX-II; made in house; host or cells: SF9 insect cells (recombinant baculovirus, transfer vector pVL1393)
T2 sequence (P35354 18-604): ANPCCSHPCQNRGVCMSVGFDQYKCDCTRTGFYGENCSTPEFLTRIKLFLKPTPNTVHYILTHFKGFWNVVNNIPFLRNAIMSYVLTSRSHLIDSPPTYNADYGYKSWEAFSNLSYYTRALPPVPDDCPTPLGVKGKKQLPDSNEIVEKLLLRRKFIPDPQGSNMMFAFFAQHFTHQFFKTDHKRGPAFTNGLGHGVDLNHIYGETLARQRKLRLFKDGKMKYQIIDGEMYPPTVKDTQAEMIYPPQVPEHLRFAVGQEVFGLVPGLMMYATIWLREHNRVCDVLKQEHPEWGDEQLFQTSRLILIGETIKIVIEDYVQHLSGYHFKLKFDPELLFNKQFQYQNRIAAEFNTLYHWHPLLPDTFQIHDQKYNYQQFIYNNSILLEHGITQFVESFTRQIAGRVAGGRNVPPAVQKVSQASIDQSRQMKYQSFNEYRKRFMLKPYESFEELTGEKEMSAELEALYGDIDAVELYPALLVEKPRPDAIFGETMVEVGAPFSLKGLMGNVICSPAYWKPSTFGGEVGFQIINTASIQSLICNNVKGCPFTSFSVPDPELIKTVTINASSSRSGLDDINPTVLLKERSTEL
As to the kind of experiment: COX II activity in vitro (PGE2 ELISA, recombinant enzyme). The data set is classed as biochemical. To be noted: arachidonic acid 10 μM, pre-incubation 10-20 minutes; read-out: Human COX II ID50. The method, then: The COX II inhibition activity of the compounds of this invention illustrated in the Examples was determined by the following methods.
as §1, §2
(In general: ELISA stands for enzyme-linked immunosorbent assay.)

Data set [3] deals with carrageenan-induced hyperalgesic foot withdrawal. The experiment in a line: Rat Carrageenan-induced Analgesia Test. The class given is in vivo. The settings on record: 30 mg/kg body weight, oral, 3 h after carrageenan. As for the experimental part: The analgesia test using rat carrageenan was performed with materials, reagents and procedures essentially as described by Hargreaves, et al., (Pain, 32, 77 (1988)). Male Sprague-Dawley rats were treated as previously described for the Carrageenan Foot Pad Edema test. Three hours after the injection of the carrageenan, the rats were placed in a special plexiglass container with a transparent floor having a high intensity lamp as a radiant heat source, positionable under the floor. After an initial twenty minute period, thermal stimulation was begun on either the injected foot or on the contralateral uninjected foot. A photoelectric cell turned off the lamp and timer when light was interrupted by paw withdrawal. The time until the rat withdraws its foot was then measured. The withdrawal latency in seconds was determined for the control and drug-treated groups, and percent inhibition of the hyperalgesic foot withdrawal determined.

Data set [4] has as its system carrageenan foot edema. As to the kind of experiment: Rat Carrageenan Foot Pad Edema Test. To be noted: 30 mg/kg body weight, oral, dosed 1 h before carrageenan, foot volume 3 h after carrageenan. The class given is in vivo. The method, then:
The carrageenan foot edema test was performed with materials, reagents and procedures essentially as described by Winter, et al., (Proc. Soc. Exp. Biol. Med., 111, 544 (1962)). Male Sprague-Dawley rats were selected in each group so that the average body weight was as close as possible. Rats were fasted with free access to water for over sixteen hours prior to the test. The rats were dosed orally (1 ml) with compounds suspended in vehicle containing 0.5% methylcellulose and 0.025% surfactant, or with vehicle alone. One hour later a subplantar injection of 0.1 ml of 1% solution of carrageenan/sterile 0.9% saline was administered and the volume of the injected foot was measured with a displacement plethysmometer connected to a pressure transducer with a digital indicator. Three hours after the injection of the carrageenan, the volume of the foot was again measured. The average foot swelling in a group of drug-treated animals was compared with that of a group of placebo-treated animals and the. percentage inhibition of edema was determined (Otterness and Bliven, Laboratory Models for Testing NSAIDs, in Non-steroidal Anti-Inflammatory Drugs, (J. Lombardino, ed. 1985)).
Background: The carrageenan paw model is a standard test of acute inflammation.

From US6426360B1, “4,5-substituted imidazolyl compounds for the treatment of inflammation” (G D Searle & Co., priority 1994, dated 2002) come the findings set out here.

Structures are written as SMILES. A value given as a limit tells only on which side of the number the result lay.

T1 sequence (P23219 24-599): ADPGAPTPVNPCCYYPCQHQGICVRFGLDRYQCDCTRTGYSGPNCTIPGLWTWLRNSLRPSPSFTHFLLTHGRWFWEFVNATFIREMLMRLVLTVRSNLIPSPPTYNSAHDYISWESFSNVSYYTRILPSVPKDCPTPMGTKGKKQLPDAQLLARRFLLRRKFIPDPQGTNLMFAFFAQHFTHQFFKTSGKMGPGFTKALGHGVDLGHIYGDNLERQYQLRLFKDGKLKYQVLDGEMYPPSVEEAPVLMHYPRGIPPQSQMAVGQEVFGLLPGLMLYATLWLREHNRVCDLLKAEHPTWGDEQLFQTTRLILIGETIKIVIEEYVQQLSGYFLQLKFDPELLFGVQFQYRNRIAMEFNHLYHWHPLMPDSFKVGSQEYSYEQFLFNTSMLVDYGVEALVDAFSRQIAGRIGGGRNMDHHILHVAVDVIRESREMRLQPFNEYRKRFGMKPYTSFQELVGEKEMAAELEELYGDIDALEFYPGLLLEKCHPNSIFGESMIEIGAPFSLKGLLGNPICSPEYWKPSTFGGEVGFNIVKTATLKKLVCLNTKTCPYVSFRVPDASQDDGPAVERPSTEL

As to `CS(=O)(=O)c1ccc(-c2[nH]c(S(=O)(=O)Cc3ccccc3)nc2-c2ccc(F)cc2)cc1` [Example 51, 4-(4-Fluorophenyl)-5-[4-(methylsulfonyl)phenyl]-2-[(phenylmethyl)sulfonyl]-1H-imidazole], the melting point (usually the temperature, or range, at which the solid turns liquid) was in the range of 211 to 213 °C. Further, in data set [1], the IC50 was more than 100 µM. In data set [2], the IC50 stood at 1.7 µM.

`CS(=O)(=O)c1ccc(-c2nc(CO)[nH]c2-c2ccc(F)cc2)cc1` [Example 9, 5-(4-Fluorophenyl)-2-hydroxymethyl-4-[4-(methylsulfonyl)phenyl]imidazole] yielded a melting point of 115 to 117 °C. In addition, in data set [1], the IC50 was more than 100 µM. The IC50 in data set [2] is 5.1 µM.

Regarding `CS(=O)(=O)c1ccc(-c2nc(C(F)(F)F)[nH]c2-c2ccc(F)cc2)cc1` [Example 1, 5-(4-Fluorophenyl)-4-(4-methylsulfonylphenyl)-2-trifluoromethyl-1H-imidazole], the melting point is 249 to 250 °C (dec.). Further, the “ANALGESIA % Inhibition” value in data set [3] was 25%. In data set [1], the IC50 was more than 100 µM. Also, the IC50 in data set [2] came to 0.2 µM. The “RAT PAW EDEMA % Inhibition” value in data set [4] came out at 22%.

Compound `CS(=O)(=O)c1ccc(-c2nc(C(F)(F)F)[nH]c2C2CCCCCC2)cc1` [Example 72, 5-[4-Cycloheptyl)-4-[4-(methylsulfonyl)phenyl]-2-(trifluoromethyl)-1H-imidazole] gave a melting point of 206 to 207 °C. The IC50 in data set [1] was more than 100 µM. The IC50 in data set [2] stood at 3 µM.

With `CSc1ccc(-c2[nH]c(C(F)(F)F)nc2-c2ccc(S(C)(=O)=O)cc2)cc1Cl` [Example 55, 5-[3-Chloro-4-(methylthio)phenyl]-4-[4-(methylsulfonyl)phenyl]-2-(trifluoromethyl)-1H-imidazole], the melting point was 255 to 257 °C. Moreover, the IC50 in data set [1] is more than 100 µM. Further, the IC50 in data set [2] was found to be 0.3 µM.

As for `CS(=O)(=O)c1ccc(-c2nc(-c3ccco3)[nH]c2-c2ccc(F)cc2)cc1` [Example 7, 5-(4-Fluorophenyl)-2-(2-furyl)-4-(4-methylsulfonylphenyl)-1H-imidazole], the melting point was 244 to 246 °C (dec.). Further, the IC50 in data set [1] is more than 100 µM. The IC50 in data set [2] amounted to 4.8 µM.

`CC(=O)n1c(C(F)(F)F)nc(-c2ccc(S(C)(=O)=O)cc2)c1-c1cc(C)cc(Cl)c1` [Example 58, 1-[5-(3-Chloro-5-methylphenyl)-4-[4-(methylsulfonyl)phenyl]-2-(trifluoromethyl)-1H-imidazol-1-yl]ethanone] registered a melting point of 257 °C. Moreover, the IC50 in data set [1] was more than 100 µM. Moreover, the IC50 in data set [2] stood at 0.2 µM. Besides, in data set [4], the “RAT PAW EDEMA % Inhibition” value amounted to 14%.

Regarding `CS(=O)(=O)c1ccc(-c2nc(-c3ccoc3)[nH]c2-c2ccc(F)cc2)cc1` [Example 20, 5-(4-Fluorophenyl)-2-(3-furyl)-4-(4-methylsulfonylphenyl)-1H-imidazole], the melting point was 233 to 235 °C (dec.). The IC50 in data set [1] is more than 100 µM. Besides, the IC50 in data set [2] was found to be 40.7 µM.

`CS(=O)(=O)c1ccc(-c2nc(C(F)(F)F)[nH]c2-c2ccc(Br)s2)cc1` [Example 47, 5-(5-Bromothien-2-yl)-4-[4-(methylsulfonyl)phenyl]-2-(trifluoromethyl)-1H-imidazole] gave a melting point of 261 to 262 °C. The IC50 in data set [1] worked out at 12.9 µM. Moreover, the IC50 in data set [2] is 0.1 µM.

Turning to `COC(C)c1nc(-c2ccc(F)cc2)c(-c2ccc(S(C)(=O)=O)cc2)[nH]1` (stereo not drawn) [Example 94, 4-(4-Fluorophenyl)-2-(1-methoxyethyl)-5-[4-(methyl-sulfonyl)phenyl]-1H-imidazole], the melting point worked out at 212 °C. For the same compound, the IC50 in data set [1] was more than 100 µM. For the same compound, the IC50 in data set [2] was 6.4 µM.

Regarding `Cc1ccc(-c2[nH]c(C(F)(F)F)nc2-c2ccc(S(C)(=O)=O)cc2)cc1` [Example 16, 5-(4-Methylphenyl)-4-[4-(methylsulfonyl)phenyl]-2-(trifluoromethyl)-1H-imidazole], the melting point fell in the range of 234 to 238 °C. Besides, the IC50 in data set [1] was 20 µM. Further, in data set [2], the IC50 was 0.6 µM.

The compound `CS(=O)(=O)c1ccc(-c2[nH]c(C(O)C(F)(F)F)nc2-c2ccc(F)cc2)cc1` (stereo not drawn) [Example 90, 4-(4-Fluorophenyl)-5-(4-(methylsulfonyl)phenyl]-a-(trifluoromethyl)-1H-imidazole-2-methanol] had a melting point of 126 to 130 °C. Besides, in data set [1], the IC50 is more than 100 µM. Also, the IC50 in data set [2] is 3.9 µM.

Compound `CC(C)c1nc(-c2ccc(S(C)(=O)=O)cc2)c(-c2ccc(F)cc2)[nH]1` [Example 5, 5-(4-Fluorophenyl)-2-isopropyl-4-(4-methylsulfonylphenyl)-1H-imidazole] yielded a melting point of 214 to 215 °C. Moreover, the IC50 in data set [1] is more than 100 µM. Also, the IC50 in data set [2] came out at 1.2 µM.

Compound `CC(F)(F)c1nc(-c2ccc(F)cc2)c(-c2ccc(S(C)(=O)=O)cc2)[nH]1` [Example 95, 2-(1,1-Difluoroethyl)-4-(4-fluorophenyl)-5-[4-(methyl-sulfonyl)phenyl]-1H-imidazole] came in with a melting point of 211 °C. Besides, the IC50 in data set [1] is more than 100 µM. The IC50 in data set [2] is 2.4 µM.

As to `CC(=O)c1nc(-c2ccc(F)cc2)c(-c2ccc(S(C)(=O)=O)cc2)[nH]1` [Example 83, 1-[4-(4-Fluorophenyl)-5-[4-(methylsulfonyl)phenyl]-1H-imidazol-2-yl] ethanone], the melting point was in the range of 215 to 217 °C. In addition, in data set [1], the IC50 is more than 100 µM. The IC50 in data set [2] came out at 4.3 µM.

In turn, `CS(=O)(=O)c1ccc(-c2[nH]c(C(=O)C(F)(F)F)nc2-c2ccc(F)cc2)cc1` [Example 89] came in with a melting point of 291.7 °C. In data set [1], the IC50 was more than 100 µM. The IC50 in data set [2] came out at 5.3 µM.

`CS(=O)(=O)c1ccc(-c2nc(C(F)(F)F)[nH]c2-c2ccc3ccccc3c2)cc1` [Example 14] showed a melting point of 228 to 230 °C. Moreover, the IC50 in data set [1] is 2 µM. Moreover, the IC50 in data set [2] stood at 0.6 µM.
